In publication PMC3542985 (The Journal of neuroscience : the official journal of the …, 2013):
“And” between values parts separate entries of the source, which are not always exact repeats. Equal values may be shown once. Read-outs that look alike come from different tables or passages of the source.

Assays:
[1] = target: T1, Torpedo nAChR (Tetronarce californica, UniProt P02710+P02712+P02714+P02718); assay: biochemical; format: binding
[2] = target: T2, Na^+/K^+-ATPase α subunit (Tetronarce californica, UniProt P05025); format: binding, Torpedo californica
[3] = target: T1, Torpedo nAChR; format: binding
[4] = target: T1, Torpedo nAChR; assay: equilibrium binding of [^3H]ACh; settings: IC50, inhibition of [^3H]ACh binding
[5] = target: T1, Torpedo nAChR; assay: equilibrium binding of the ion channel blocker [^3H]PCP
[6] = target: T1, Torpedo nAChR; assay: equilibrium binding of the ion channel blocker [^3H]tetracaine
[7] = target: T2, Na^+/K^+-ATPase α subunit; format: binding, Torpedo californica; remark: listed apart in the source
[8] = Resting vs. Desensitized, −Carb (no other drugs)

T2 sequence (P05029 whole entry, other chains not shown): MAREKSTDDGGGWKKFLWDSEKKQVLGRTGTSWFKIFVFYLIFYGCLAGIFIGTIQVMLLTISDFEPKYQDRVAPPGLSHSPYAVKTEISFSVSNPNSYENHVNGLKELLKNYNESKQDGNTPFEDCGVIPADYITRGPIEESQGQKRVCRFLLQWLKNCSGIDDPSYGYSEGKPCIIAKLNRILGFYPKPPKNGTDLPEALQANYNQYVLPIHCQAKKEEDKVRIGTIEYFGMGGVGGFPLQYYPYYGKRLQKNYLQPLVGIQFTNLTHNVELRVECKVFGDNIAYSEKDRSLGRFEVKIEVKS
T1 sequence (P02718 22-522): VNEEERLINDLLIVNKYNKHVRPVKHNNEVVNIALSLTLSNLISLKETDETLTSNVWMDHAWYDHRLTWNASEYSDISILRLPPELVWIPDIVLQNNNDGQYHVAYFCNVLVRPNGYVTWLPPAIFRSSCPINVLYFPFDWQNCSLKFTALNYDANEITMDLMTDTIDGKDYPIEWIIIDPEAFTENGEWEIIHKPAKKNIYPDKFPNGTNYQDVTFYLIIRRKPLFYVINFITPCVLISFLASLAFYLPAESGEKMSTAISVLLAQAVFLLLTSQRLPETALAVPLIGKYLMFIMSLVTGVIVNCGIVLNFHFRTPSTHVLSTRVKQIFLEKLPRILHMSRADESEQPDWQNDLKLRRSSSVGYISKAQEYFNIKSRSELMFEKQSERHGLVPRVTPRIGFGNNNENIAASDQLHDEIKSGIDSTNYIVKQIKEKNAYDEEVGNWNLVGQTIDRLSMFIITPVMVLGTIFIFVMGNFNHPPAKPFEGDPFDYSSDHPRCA
T1 sequence (P02714 18-506): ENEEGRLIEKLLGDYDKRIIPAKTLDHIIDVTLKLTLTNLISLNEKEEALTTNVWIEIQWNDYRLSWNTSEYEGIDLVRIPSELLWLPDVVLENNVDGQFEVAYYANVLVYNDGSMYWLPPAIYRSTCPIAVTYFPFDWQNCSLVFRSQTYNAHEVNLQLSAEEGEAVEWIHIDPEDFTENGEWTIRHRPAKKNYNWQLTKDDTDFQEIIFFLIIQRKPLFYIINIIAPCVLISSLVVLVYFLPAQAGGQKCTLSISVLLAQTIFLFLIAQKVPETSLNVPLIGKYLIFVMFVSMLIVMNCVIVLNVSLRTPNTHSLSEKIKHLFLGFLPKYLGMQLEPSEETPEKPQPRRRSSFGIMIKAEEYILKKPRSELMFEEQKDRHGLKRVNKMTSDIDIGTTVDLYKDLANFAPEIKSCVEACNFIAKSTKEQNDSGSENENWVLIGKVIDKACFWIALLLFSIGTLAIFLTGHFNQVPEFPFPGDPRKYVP
T1 sequence (P02712 25-493): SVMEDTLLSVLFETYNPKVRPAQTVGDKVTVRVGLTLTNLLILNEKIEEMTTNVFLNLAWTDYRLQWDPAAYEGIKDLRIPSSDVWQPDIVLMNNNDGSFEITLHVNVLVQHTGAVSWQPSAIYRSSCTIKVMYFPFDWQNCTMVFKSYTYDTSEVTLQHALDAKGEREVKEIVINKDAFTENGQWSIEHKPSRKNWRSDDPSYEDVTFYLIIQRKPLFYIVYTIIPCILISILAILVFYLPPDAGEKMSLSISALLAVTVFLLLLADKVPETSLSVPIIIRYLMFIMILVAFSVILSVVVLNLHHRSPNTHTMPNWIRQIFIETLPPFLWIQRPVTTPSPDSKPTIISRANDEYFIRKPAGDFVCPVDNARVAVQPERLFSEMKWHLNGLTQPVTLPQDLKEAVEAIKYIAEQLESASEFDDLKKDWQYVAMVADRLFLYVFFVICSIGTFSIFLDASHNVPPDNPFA
T1 sequence (P02710 25-461): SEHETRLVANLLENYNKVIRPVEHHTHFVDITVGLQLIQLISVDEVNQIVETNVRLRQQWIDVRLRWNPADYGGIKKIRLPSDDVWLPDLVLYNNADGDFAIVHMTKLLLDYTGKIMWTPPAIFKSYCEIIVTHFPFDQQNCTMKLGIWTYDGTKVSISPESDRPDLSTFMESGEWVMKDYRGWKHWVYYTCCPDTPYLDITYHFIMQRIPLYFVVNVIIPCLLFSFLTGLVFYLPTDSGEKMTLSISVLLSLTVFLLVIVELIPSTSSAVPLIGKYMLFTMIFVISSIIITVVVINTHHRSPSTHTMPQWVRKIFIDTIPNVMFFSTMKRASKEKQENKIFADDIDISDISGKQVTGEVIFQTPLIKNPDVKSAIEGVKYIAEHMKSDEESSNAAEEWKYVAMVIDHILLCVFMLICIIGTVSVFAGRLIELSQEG

## α-bungarotoxin [α-BgTx]
[1]
  alteration of [^3H]physostigmine photoincorporation in nAChR β subunit: < 5%
  change of efficiency of [^3H]physostigmine photolabeling at δTyr-439: < 20%
  decrease of [^3H]physostigmine photolabeling of nAChR δ subunit: ~ 10%
  effect on [^3H]physostigmine photolabeling of γTyr-105: unchanged
  inhibition of [^3H]physostigmine photolabeling of αTyr-190, αCys-192 and αTyr-198: > 85%
  inhibition of [^3H]physostigmine photolabeling of αV8-20 fragment: > 75%
  inhibition of [^3H]physostigmine photolabeling of γTyr-111 and γTyr-117: 50–60%
  reduction of [^3H]physostigmine photoincorporation into nAChR α subunit: 40%
  reduction of [^3H]physostigmine photoincorporation into nAChR γ subunit: 20%
  reduction of [^3H]physostigmine photolabeling of δTyr-172: 70%
  reduction of efficiency of [^3H]physostigmine photolabeling of δTyr-212: ~ 25%
[2]
  alteration of [^3H]physostigmine photoincorporation in Na^+/K^+-ATPase α subunit: < 5%

## C[N+](C)(C)CCOC(N)=O.[Cl-] [Carb, carbamylcholine]
[1]
  alteration of [^3H]physostigmine photoincorporation in nAChR β subunit: < 5%
  change of efficiency of [^3H]physostigmine photolabeling at δTyr-439: < 20%
  effect on [^3H]physostigmine photolabeling of γTyr-105: enhanced
  effect on efficiency of [^3H]physostigmine photolabeling of δTyr-212: doubled
  increase of [^3H]physostigmine photolabeling of nAChR δ subunit: ~ 10%
  inhibition of [^3H]physostigmine photolabeling of αTyr-93: > 90%
  inhibition of [^3H]physostigmine photolabeling of αTyr-190, αCys-192 and αTyr-198: > 85%
  inhibition of [^3H]physostigmine photolabeling of αV8-20 fragment: > 75%
  inhibition of [^3H]physostigmine photolabeling of γTyr-111 and γTyr-117: 50–60%
  reduction of [^3H]physostigmine photoincorporation into nAChR α subunit: 40%
  reduction of [^3H]physostigmine photoincorporation into nAChR γ subunit: 10%
[3]
  inhibition of [^3H]galanthamine photolabeling in the α subunit: 80%
  inhibition of [^3H]galanthamine photolabeling of αTyr-190 and αTyr-198: > 95%
  reduction of [^3H]galanthamine photolabeling in β subunit: < 5%
  reduction of [^3H]galanthamine photolabeling in γ and δ subunits: ~ 25%
[2]
  alteration of [^3H]physostigmine photoincorporation in Na^+/K^+-ATPase α subunit: < 5%

## [^3H]physostigmine
[1]
  efficiency of photolabeling at δTyr-439: 1 cpm/pmol
  photolabeling, if it occurred, of αLys-125: less than 0.2 cpm/pmol
  photolabeling, if it occurred, of αTyr-127: < 0.05 cpm/pmol
[1]; +Carb 1 mM
  photolabeling of δTyr-172: 4.9 cpm/pmol
[1]; +αBgTx 8 μM
  photolabeling of δTyr-172: 1.6 cpm/pmol
[1]; Carb-independent
  photolabeling of δTyr-172: 4 cpm/pmol
[1]; [8]
  photoincorporation into αY190 (Site IV, core aromatics): 10 cpm/pmol
  photoincorporation into αY198 (Site IV, core aromatics): 20 cpm/pmol
  photoincorporation into γY111 (Site I): 9 cpm/pmol
  photoincorporation into γY117 (Site I): 2 cpm/pmol
[1]; absence of other drugs
  photolabeling of αCys-192: 10 cpm/pmol
[1]; data not shown
  photolabeling of δTrp-57: 0.8 cpm/pmol
  photolabeling, if it occurred, of adjacent aromatic amino acids (δTrp-64, δTyr-65): < 0.2 cpm/pmol
[1]; −Carb
  photolabeling of δTyr-172: 3.4 cpm/pmol
[1]; −αBgTx
  photolabeling of δTyr-172: 5 cpm/pmol

## CNC(=O)Oc1ccc2c(c1)[C@]1(C)CCN(C)[C@@H]1N2C [physostigmine]
[4]
  IC50: > 10000 µM
[5]; IC50, inhibition of [^3H]PCP binding
  IC50: 1000 µM and 900 µM
[6]
  IC50: 5000 µM
[1]
  decrease of [^3H]physostigmine photolabeling in the nAChR subunits: 25–40%
[2]
  decrease of [^3H]physostigmine photolabeling in Na^+/K^+-ATPase α subunit: < 5%

## COc1ccc2c3c1O[C@H]1C[C@@H](O)C=C[C@@]31CCN(C)C2 [galanthamine]
[4]
  IC50: 3000 µM and 2800 µM
[5]; read-out: inhibition of [^3H]PCP binding
  inhibition at 3000 µM: 20%
[6]; read-out: inhibition of [^3H]tetracaine binding
  inhibition at 3000 µM: 10%
[1]
  change of efficiency of [^3H]physostigmine photolabeling at δTyr-439: < 20%
  reduction of [^3H]physostigmine photoincorporation into the nAChR subunits: to the same extent as 100 μM physostigmine
[1]; read-out: inhibition of [^3H]physostigmine photolabeling of γTyr-105, γTyr-111 and γTyr-117
  inhibition at 300 µM: ~75%
[1]; read-out: inhibition of [^3H]physostigmine photolabeling of δTyr-212
  inhibition at 300 µM: ~50%
[3]
  reduction of [^3H]galanthamine photolabeling of each nAChR subunit: ~ 25%
[7]
  reduction of [^3H]galanthamine photolabeling of Na^+/K^+-ATPase α subunit: < 5%
